The assay concerns the target CK2A1 (CK2α/β) (Homo sapiens, UniProt P68400). The experiment in a line: CK2 kinase assay, CK2A1 (CK2α/β). The conditions noted are these: Table A; read-out: CK2A1 (CK2α/β) (IC50). The assay is classed as biochemical.
CK2A1 (CK2α/β), sequence (P68400 whole entry, species assumed): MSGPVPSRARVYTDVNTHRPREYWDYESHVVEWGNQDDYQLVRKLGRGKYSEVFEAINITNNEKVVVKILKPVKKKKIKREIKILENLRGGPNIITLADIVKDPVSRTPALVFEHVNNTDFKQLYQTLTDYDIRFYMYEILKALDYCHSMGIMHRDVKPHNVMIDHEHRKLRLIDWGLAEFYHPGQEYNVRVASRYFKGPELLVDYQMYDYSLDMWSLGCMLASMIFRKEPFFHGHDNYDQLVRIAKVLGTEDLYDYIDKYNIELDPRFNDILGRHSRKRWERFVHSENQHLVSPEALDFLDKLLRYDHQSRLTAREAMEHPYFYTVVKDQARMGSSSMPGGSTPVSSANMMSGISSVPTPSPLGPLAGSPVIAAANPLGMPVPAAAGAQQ
CK2A1 (CK2α/β), sequence (P67870 whole entry partner, species assumed): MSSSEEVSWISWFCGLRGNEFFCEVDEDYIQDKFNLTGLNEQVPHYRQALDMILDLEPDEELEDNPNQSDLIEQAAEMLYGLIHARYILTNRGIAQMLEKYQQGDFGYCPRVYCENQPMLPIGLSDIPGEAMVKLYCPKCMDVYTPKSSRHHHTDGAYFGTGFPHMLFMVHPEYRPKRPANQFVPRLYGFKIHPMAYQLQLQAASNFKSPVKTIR
Regarding `C[C@]1(N)CCN(c2cc(C#N)cc(Nc3nc(NC4CC4)c4ncc(C#N)n4n3)c2Cl)C[C@@H]1O` [Example 36, 2-((3-((3S,4S)-4-amino-3-hydroxy-4-methyl-1-piperidinyl)-2-chloro-5-cyanophenyl)amino)-4-(cyclopropylamino)imidazo [2,1-f][1,2,4]triazine-7-carbonitrile], the IC50 was found to be 0.32 nM. Regarding `N#Cc1cc(Nc2nc(NC3CC3)c3ncc(C#N)n3n2)c(F)c(C2CCN(C3COC3)CC2)c1` [Example 384, 2-((5-cyano-2-fluoro-3-(1-(oxetan-3-yl)piperidin-4-yl)phenyl)amino)-4-(cyclopropylamino)imidazo[2,1-f][1,2,4]triazine-7-carbonitrile], the IC50 came out at 0.43 nM. The figure for `CCNc1nc(Nc2cc(C#N)cc(N3CC[C@H]4NC(=O)CO[C@@H]4C3)c2Cl)nn2c(C#N)cnc12` (racemic) [Example 370, (+/−)-2-((2-chloro-5-cyano-3-((4aR,8aR)-2-oxohexahydro-1H-pyrido[3,4-b][1,4]oxazin-6(7H)-yl)phenyl)amino)-4-(ethylamino)imidazo[2,1-f][1,2,4]triazine-7-carbonitrile] is 0.35 nM; for `N#Cc1cc(Nc2nc(NC3CC3)c3ncc(C#N)n3n2)c(Cl)c(N2CC(N3CCOCC3)C2)c1` [Example 152, 2-((2-chloro-5-cyano-3-(3-(4-morpholinyl)-1-azetidinyl)phenyl)amino)-4-(cycloproplamino)imidazo [2,1-f][1,2,4]triazine-7-carbonitrile] it is 0.53 nM. The figure for `CCNc1nc(Nc2cc(C#N)cc(N3C[C@@H](C)[C@@H](NC(=O)OC)C3)c2Cl)nn2c(C#N)cnc12` [Example 335, methyl ((3R,4R)-1-(2-chloro-5-cyano-3-((7-cyano-4-(ethylamino)imidazo[2,1-f][1,2,4]triazin-2-yl)amino)phenyl)-4-methyl-3-pyrrolidinyl)carbamate] is 3.97 nM; for `N#Cc1cc(Nc2nc(NC3CC3)c3ncc(C#N)n3n2)c(Cl)c(N2CCC3(CC2)CN(CC(O)CF)C3)c1` (racemic) [Example 796, (+/−)-2-((2-chloro-5-cyano-3-(2-(3-fluoro-2-hydroxypropyl)-2,7-diazaspiro[3.5]nonan-7-yl)phenyl)amino)-4-(cyclopropylamino)imidazo[2,1-f][1,2,4]triazine-7-carbonitrile] it is 1.69 nM. Take `N#Cc1cc(Nc2nc(NC3CC3)c3ncc(C#N)n3n2)c(Cl)c(N2CC[C@@H](NC(=O)CN3CCOCC3)[C@H](O)C2)c1` (racemic) [Example 183, (+/−)-N-((3R,4R)-1-(2-chloro-5-cyano-3-((7-cyano-4-(cyclopropylamino)imidazo[2,1-f][1,2,4]triazin-2-yl)amino)phenyl)-3-hydroxypiperidin-4-yl)-2-morpholinoacetamide]: the IC50 is 0.64 nM. The figure for `CN1CCC(O)(c2cc(C#N)cc(Nc3nc(NC4CC4)c4ncc(C#N)n4n3)c2Cl)CC1` [Example 649, 2-((2-chloro-5-cyano-3-(4-hydroxy-1-methylpiperidin-4-yl)phenyl)amino)-4-(cyclopropylamino)imidazo[2,1-f][1,2,4]triazine-7-carbonitrile] is 1.01 nM; for `N#Cc1cc(Nc2nc(NC3CC3)c3ncc(C#N)n3n2)c(Cl)c(N2CCC3C(CCN3C[C@@H](O)CF)C2)c1` (stereo partly drawn) [Example 448, 2-((2-chloro-5-cyano-3-(1-((R)-3-fluoro-2-hydroxypropyl)hexahydro-1H-pyrrolo[3,2-c]pyridin-5(6H)-yl)phenyl)amino)-4-(cyclopropylamino)imidazo[2,1-f][1,2,4]triazine-7-carbonitrile] it is 0.88 nM; for `CCC(C)(O)CC(=O)N1CC(N2CCN(c3cc(C#N)cc(Nc4nc(NC5CC5)c5ncc(C#N)n5n4)c3Cl)CC2)C1` (centres unmarked) [Example 508, 2-[(2-chloro-5-cyano-3-{4-[1-(3-hydroxy-3-methylpentanoyl)azetidin-3-yl]piperazin-1-yl}phenyl)amino]-4-(cyclopropylamino)imidazo[2,1-f][1,2,4]triazine-7-carbonitrile] it is 4.73 nM. To `CC(C)(O)CN[C@@H]1CCCN(c2cc(C#N)cc(Nc3nc(NC4CC4)c4ncc(C#N)n4n3)c2Cl)C1` [Example 43, 2-((2-chloro-5-cyano-3-((3R)-3-((2-hydroxy-2-methylpropyl)amino)-1-piperidinyl)phenyl)amino)-4-(cyclopropylamino)imidazo [2,1-f][1,2,4]triazine-7-carbonitrile] belongs 1.82 nM. The figure for `CN(C)C(=O)C1CN(c2cc(C#N)cc(Nc3nc(NC4CC4)c4ncc(C#N)n4n3)c2Cl)CCN1` (centres unmarked) [Example 563, 4-(2-chloro-5-cyano-3-((7-cyano-4-(cyclopropylamino)imidazo[2,1-f][1,2,4]triazin-2-yl)amino)phenyl)-N,N-dimethylpiperazine-2-carboxamide] is 0.79 nM. As to `CCNc1nc(Nc2cc(C#N)cc(N3CCN(CC(C)O)CC3)c2Cl)nn2c(C#N)cnc12` (stereo in doubt) [Example 429, 2-((2-chloro-5-cyano-3-(4-((2R)-2-hydroxypropyl)-1-piperazinyl)phenyl)amino)-4-(ethylamino)imidazo[2,1-f][1,2,4]triazine-7-carbonitrile], the IC50 was found to be 1.28 nM. Consider `CN1CC2(CCN(c3cc(C#N)cc(Nc4nc(NC5CC5)c5ncc(C#N)n5n4)c3Cl)CC2)OC1=O` [Example 780, 2-((2-chloro-5-cyano-3-(3-methyl-2-oxo-1-oxa-3,8-diazaspiro[4.5]decan-8-yl)phenyl)amino)-4-(cyclopropylamino)imidazo[2,1-f][1,2,4]triazine-7-carbonitrile], for which the IC50 came to 0.67 nM. On to `CC(O)CNC1CCN(c2cc(C#N)cc(Nc3nc(NC4CC4)c4ncc(C#N)n4n3)c2Cl)CC1` (racemic) [Example 138, (+/−).2-(2-chloro-5-cyano-3-(4-(2-hydroxypropylamino)piperidin-1-yl)phenylamino)-4-(cyclopropylamino)imidazo [1,2-f][1,2,4]triazine-7-carbonitrile], for which the IC50 was 0.64 nM. Consider `C[C@H](O)CN1CC(N2CCC(c3cc(C#N)cc(Nc4nc(NC5CC5)c5ncc(C#N)n5n4)c3Cl)CC2)C1` [Example 322, 2-((2-chloro-5-cyano-3-(1-(1-((2S)-2-hydroxypropyl)-3-azetidinyl)-4-piperidinyl)phenyl)amino)-4-(cyclopropylamino)imidazo [2,1-f][1,2,4]triazine-7-carbonitrile], for which the IC50 was 1.78 nM. The figure for `N#Cc1cc(Nc2nc(NC3CC3)c3ncc(C#N)n3n2)c(Cl)c(C2CCN(C3CC[C@@H](N)[C@H](O)C3)CC2)c1` (stereo partly drawn) [Example 217, 2-((3-(1-((3R,4R)-4-amino-3-hydroxycyclohexyl)-4-piperidinyl)-2-chloro-5-cyanophenyl)amino)-4-(cyclopropylamino)imidazo[2,1-f][1,2,4]triazine-7-carbonitrile] is 0.6 nM; for `N#Cc1cc(Nc2nc(NC3CC3)c3ncc(C#N)n3n2)c(Cl)c(N2CCC(NC3COC3)CC2)c1` [Example 110, 2-((2-chloro-5-cyano-3-(4-(3-oxetanylamino)-1-piperidinyl)phenyl)amino)-4-(cyclopropylamino)imidazo [2,1-f][1,2,4]triazine-7-carbonitrile] it is 0.58 nM.

For the molecule `CCNc1nc(Nc2cc(C#N)cc(N3CC[C@H](NC(=O)OC)[C@H](F)C3)c2Cl)nn2c(C#N)cnc12` [Example 331, methyl ((3R,4S)-1-(2-chloro-5-cyano-3-((7-cyano-4-(ethylamino)imidazo[2,1-f][1,2,4]triazin-2-yl)amino)phenyl)-3-fluoro-4-piperidinyl)carbamate], the IC50 was 2.32 nM. The figure for `N#Cc1cc(Nc2nc(NC3CC3)c3ncc(C#N)n3n2)c(Cl)c(N2CCN3C(CCS3(=O)=O)C2)c1` (racemic) [Example 788, (+/−)-2-((2-chloro-5-cyano-3-(1,1-dioxidotetrahydro-2H-isothiazolo[2,3-a]pyrazin-5 (3H)-yl)phenyl)amino)-4-(cyclopropylamino)imidazo[2,1-f][1,2,4]triazine-7-carbonitrile] is 0.62 nM; for `N#CCCN(Cc1cc(C#N)cc(Nc2nc(NC3CC3)c3ncc(C#N)n3n2)c1Cl)CC1CCCO1` (centres unmarked) [Example 474, 2-[(2-chloro-5-cyano-3-{[(2-cyanoethyl)(oxolan-2-ylmethyl)amino]methyl}phenyl)amino]-4-(cyclopropylamino)imidazo[2,1-f][1,2,4]triazine-7-carbonitrile] it is 1.55 nM.

For `CCNc1nc(-n2cc([C@@H]3C[C@H]3CN(C)C)c3ccc(C#N)cc32)nn2c(C#N)cnc12` (single isomer, unassigned) [Example 775], the IC50 worked out at 2.35 nM.

For the molecule `CNC(C)CC(C)c1cc(Cl)c(Nc2nc(NC3CC3)c3ncc(C#N)n3n2)cc1C#N` (centres unmarked) [Example 733, 2-({2-chloro-5-cyano-4-[4-(methylamino)pentan-2-yl]phenyl}amino)-4-(cyclopropylamino)imidazo [2,1-f][1,2,4]triazine-7-carbonitrile], the IC50 was found to be 2.24 nM. To `CCNc1nc(Nc2cc(C#N)cc(N3CCC(N(C(=O)OC)C4COC4)CC3)c2Cl)nn2c(C#N)cnc12` [Example 366, methyl (1-(2-chloro-5-cyano-3-((7-cyano-4-(ethylamino)imidazo[2,1-f][1,2,4]triazin-2-yl)amino)phenyl)piperidin-4-yl)(oxetan-3-yl)carbamate] belongs 0.78 nM. To `CN(C)Cc1cc(C#N)cc(Nc2nc(NC3CC3)c3ncc(C#N)n3n2)c1Cl` [Example 667, 2-((2-chloro-5-cyano-3-((dimethylamino)methyl)phenyl)amino)-4-(cyclopropylamino)imidazo[2,1-f][1,2,4]triazine-7-carbonitrile] belongs 0.65 nM; to `CC(C)(O)C1CN(c2cc(C#N)cc(Nc3nc(NC4CC4)c4ncc(C#N)n4n3)c2Cl)CCO1` (racemic) [Example 33, (+/−) 2-((2-chloro-5-cyano-3-(2-(1-hydroxy-1-methylethyl)-4-morpholinyl)phenyl)amino)-4-(cyclopropylamino)imidazo [2,1-f][1,2,4]triazine-7-carbonitrile], 0.54 nM.

These data come from patent US9273057B2 (Bristol-Myers Squibb Company, priority 2012, dated 2016).
